# Data reported in patent US20200370087A1, “METHOD FOR DETERMINING MICROBIAL SUSCEPTIBILITY TO ANTIBIOTIC AGENTS” (Ascilion AB, priority 2017, published 2020).
# Key:
# [1] = test system: Escherichia coli ATCC 25922; conditions: E.coli, cited from earlier work
# [2] = test system: Escherichia coli (ATCC 25922); experiment: Glucose consumption susceptibility test, blood culture diluted in MHB with glucose (Example 1); assay type: cell-based; design: glucose concentration, t = 0 / glucose concentration, t = 60 / glucose concentration, t = 120 / glucose concentration, t = 180 / dC/dT (rate of change in glucose concentration) / glucose concentration, t = 240: unit not given here; conditions: for F = the rate of change in glucose concentration in relation to the reference / dC/dT (rate of change in glucose concentration) / glucose concentration, t = 0 / glucose concentration, t = 60 / glucose concentration, t = 120 / glucose concentration, t = 180 / glucose concentration, t = 240: E. coli; for glucose concentration, t = 0: 0 minutes; for glucose concentration, t = 60: 60 minutes; for glucose concentration, t = 120: 120 minutes; for glucose concentration, t = 180: 180 minutes; for glucose concentration, t = 240: 240 minutes
# Protocol: Strains of Escherichia coli (ATCC 25922), Enterococcus faecalis (ATCC 29212) and Staphylococcus aureus (ATCC 29213) were inoculated in blood culture bottles (SVA, Uppsala, Sweden) and cultivated according to the manufacturer's instructions until positive.
# Medium from each blood culture bottle was diluted 1:100 with cation adjusted Mueller-Hinton broth (SVA, Uppsala, Sweden) supplemented with glucose to a concentration of 1.0 mg/mL.
# Glucose concentrations were measured at 0, 60, 120, 180, and 240 minutes using a WaveSense Jazz glucometer (AgaMatrix, Inc., Salem, N.H., USA) with accompanying test strips.
# Susceptibility scores corresponding to MIC values were calculated as described above. A 80% threshold was applied, i.e. the lowest concentration of antibiotic that entailed a rate of change in glucose concentration that was equal to or less than 80% of the reference was selected as the Minimal Inhibitory Concentration. The rate of change was calculated between the measurements at 60 and 180 minutes.
# [3] = test system: Enterococcus faecalis ATCC 29212; conditions: E.faecalis, cited from earlier work
# [4] = range obtained by EUCAST from ISO 20776-1: 2006
# [5] = reference value, Mueller-Hinton agar, incubation 18±2 h, N/A = not susceptible
compound,measurement,setting,value
"CO[C@@]1(NC(=O)Cc2cccs2)C(=O)N2C(C(=O)O)=C(COC(N)=O)CS[C@@H]21 [Cefoxitin, cefoxitin]","MIC, EUCAST, range in parentheses",[1]; [4],(2-8) ug/mL
same,"MIC, EUCAST",[1]; [5],4 µg/mL
same,F = the rate of change in glucose concentration in relation to the reference,[2]; antibiotic 0.25 μg/mL,165%
same,dC/dT (rate of change in glucose concentration),[2]; antibiotic 0.25 μg/mL,102
same,"glucose concentration, t = 0",[2]; antibiotic 0.25 μg/mL,145
same,"glucose concentration, t = 60",[2]; antibiotic 0.25 μg/mL,157
same,"glucose concentration, t = 120",[2]; antibiotic 0.25 μg/mL,143
same,"glucose concentration, t = 180",[2]; antibiotic 0.25 μg/mL,41
same,F = the rate of change in glucose concentration in relation to the reference,[2]; antibiotic 0.5 μg/mL,139%
same,dC/dT (rate of change in glucose concentration),[2]; antibiotic 0.5 μg/mL,86
same,"glucose concentration, t = 0",[2]; antibiotic 0.5 μg/mL,139
same,"glucose concentration, t = 60",[2]; antibiotic 0.5 μg/mL,154
same,"glucose concentration, t = 120",[2]; antibiotic 0.5 μg/mL,140
same,"glucose concentration, t = 180",[2]; antibiotic 0.5 μg/mL,54
same,F = the rate of change in glucose concentration in relation to the reference,[2]; antibiotic 1 μg/mL,129%
same,dC/dT (rate of change in glucose concentration),[2]; antibiotic 1 μg/mL,80
same,"glucose concentration, t = 0",[2]; antibiotic 1 μg/mL,144
same,"glucose concentration, t = 60",[2]; antibiotic 1 μg/mL,150
same,"glucose concentration, t = 120",[2]; antibiotic 1 μg/mL,143
same,"glucose concentration, t = 180",[2]; antibiotic 1 μg/mL,63
same,F = the rate of change in glucose concentration in relation to the reference,[2]; antibiotic 2 μg/mL,102%
same,dC/dT (rate of change in glucose concentration),[2]; antibiotic 2 μg/mL,63
same,"glucose concentration, t = 0",[2]; antibiotic 2 μg/mL,143
same,"glucose concentration, t = 60",[2]; antibiotic 2 μg/mL,163
same,"glucose concentration, t = 120",[2]; antibiotic 2 μg/mL,138
same,"glucose concentration, t = 180",[2]; antibiotic 2 μg/mL,75
same,F = the rate of change in glucose concentration in relation to the reference,[2]; antibiotic 4 μg/mL,19%
same,dC/dT (rate of change in glucose concentration),[2]; antibiotic 4 μg/mL,12
same,"glucose concentration, t = 0",[2]; antibiotic 4 μg/mL,146
same,"glucose concentration, t = 60",[2]; antibiotic 4 μg/mL,149
same,"glucose concentration, t = 120",[2]; antibiotic 4 μg/mL,140
same,"glucose concentration, t = 180",[2]; antibiotic 4 μg/mL,125
same,"glucose concentration, t = 240",[2]; antibiotic 4 μg/mL,116
same,F = the rate of change in glucose concentration in relation to the reference,[2]; antibiotic 8 μg/mL,18%
same,dC/dT (rate of change in glucose concentration),[2]; antibiotic 8 μg/mL,11
same,"glucose concentration, t = 0",[2]; antibiotic 8 μg/mL,145
same,"glucose concentration, t = 60",[2]; antibiotic 8 μg/mL,164
same,"glucose concentration, t = 120",[2]; antibiotic 8 μg/mL,149
same,"glucose concentration, t = 180",[2]; antibiotic 8 μg/mL,132
same,"glucose concentration, t = 240",[2]; antibiotic 8 μg/mL,127
same,F = the rate of change in glucose concentration in relation to the reference,[2]; antibiotic 16 μg/mL,6%
same,dC/dT (rate of change in glucose concentration),[2]; antibiotic 16 μg/mL,4
same,"glucose concentration, t = 0",[2]; antibiotic 16 μg/mL,142
same,"glucose concentration, t = 60",[2]; antibiotic 16 μg/mL,152
same,"glucose concentration, t = 120",[2]; antibiotic 16 μg/mL,152
same,"glucose concentration, t = 180",[2]; antibiotic 16 μg/mL,141
same,"glucose concentration, t = 240",[2]; antibiotic 16 μg/mL,145
same,F = the rate of change in glucose concentration in relation to the reference,[2]; antibiotic 32 μg/mL,5%
same,dC/dT (rate of change in glucose concentration),[2]; antibiotic 32 μg/mL,3
same,"glucose concentration, t = 0",[2]; antibiotic 32 μg/mL,146
same,"glucose concentration, t = 60",[2]; antibiotic 32 μg/mL,150
same,"glucose concentration, t = 120",[2]; antibiotic 32 μg/mL,143
same,"glucose concentration, t = 180",[2]; antibiotic 32 μg/mL,142
same,"glucose concentration, t = 240",[2]; antibiotic 32 μg/mL,137
same,MIC,"[2]; Escherichia coli, ATCC25922, E.coli, 80% threshold of reference rate of change, 60 to 180 minutes, N/A = not susceptible, no MIC value can be calculated, read-out: MIC, Measured",4 µg/mL
"CN[C@H](CC(C)C)C(=O)N[C@H]1C(=O)N[C@@H](CC(N)=O)C(=O)N[C@H]2C(=O)N[C@H]3C(=O)N[C@H](C(=O)N[C@H](C(=O)O)c4cc(O)cc(O)c4-c4cc3ccc4O)[C@H](O)c3ccc(c(Cl)c3)Oc3cc2cc(c3O[C@@H]2O[C@H](CO)[C@@H](O)[C@H](O)[C@H]2O[C@H]2C[C@](C)(N)[C@H](O)[C@H](C)O2)Oc2ccc(cc2Cl)[C@H]1O [Vancomycin, vancomycin]","MIC, EUCAST, range in parentheses",[3]; [4],(1-4) ug/mL
same,"MIC, EUCAST",[3]; [5],2 µg/mL
same,F = the rate of change in glucose concentration in relation to the reference,[2]; antibiotic 0.0625 μg/mL,67%
same,dC/dT (rate of change in glucose concentration),[2]; antibiotic 0.0625 μg/mL,42
same,"glucose concentration, t = 60",[2]; antibiotic 0.0625 μg/mL,148
same,"glucose concentration, t = 120",[2]; antibiotic 0.0625 μg/mL,144
same,"glucose concentration, t = 180",[2]; antibiotic 0.0625 μg/mL,65
same,F = the rate of change in glucose concentration in relation to the reference,[2]; antibiotic 0.125 μg/mL,71%
same,dC/dT (rate of change in glucose concentration),[2]; antibiotic 0.125 μg/mL,44
same,"glucose concentration, t = 60",[2]; antibiotic 0.125 μg/mL,153
same,"glucose concentration, t = 120",[2]; antibiotic 0.125 μg/mL,154
same,"glucose concentration, t = 180",[2]; antibiotic 0.125 μg/mL,65
same,F = the rate of change in glucose concentration in relation to the reference,[2]; antibiotic 0.25 μg/mL,68%
same,dC/dT (rate of change in glucose concentration),[2]; antibiotic 0.25 μg/mL,42
same,"glucose concentration, t = 60",[2]; antibiotic 0.25 μg/mL,150
same,"glucose concentration, t = 120",[2]; antibiotic 0.25 μg/mL,145
same,"glucose concentration, t = 180",[2]; antibiotic 0.25 μg/mL,66
same,F = the rate of change in glucose concentration in relation to the reference,[2]; antibiotic 0.5 μg/mL,65%
same,dC/dT (rate of change in glucose concentration),[2]; antibiotic 0.5 μg/mL,41
same,"glucose concentration, t = 60",[2]; antibiotic 0.5 μg/mL,149
same,"glucose concentration, t = 120",[2]; antibiotic 0.5 μg/mL,145
same,"glucose concentration, t = 180",[2]; antibiotic 0.5 μg/mL,68
same,F = the rate of change in glucose concentration in relation to the reference,[2]; antibiotic 1 μg/mL,73%
same,dC/dT (rate of change in glucose concentration),[2]; antibiotic 1 μg/mL,45
same,"glucose concentration, t = 60",[2]; antibiotic 1 μg/mL,155
same,"glucose concentration, t = 120",[2]; antibiotic 1 μg/mL,149
same,"glucose concentration, t = 180",[2]; antibiotic 1 μg/mL,65
same,F = the rate of change in glucose concentration in relation to the reference,[2]; antibiotic 2 μg/mL,65%
same,dC/dT (rate of change in glucose concentration),[2]; antibiotic 2 μg/mL,40
same,"glucose concentration, t = 60",[2]; antibiotic 2 μg/mL,147
same,"glucose concentration, t = 120",[2]; antibiotic 2 μg/mL,151
same,"glucose concentration, t = 180",[2]; antibiotic 2 μg/mL,67
same,F = the rate of change in glucose concentration in relation to the reference,[2]; antibiotic 4 μg/mL,69%
same,dC/dT (rate of change in glucose concentration),[2]; antibiotic 4 μg/mL,43
same,"glucose concentration, t = 60",[2]; antibiotic 4 μg/mL,147
same,"glucose concentration, t = 120",[2]; antibiotic 4 μg/mL,145
same,"glucose concentration, t = 180",[2]; antibiotic 4 μg/mL,61
same,F = the rate of change in glucose concentration in relation to the reference,[2]; antibiotic 8 μg/mL,87%
same,dC/dT (rate of change in glucose concentration),[2]; antibiotic 8 μg/mL,54
same,"glucose concentration, t = 60",[2]; antibiotic 8 μg/mL,159
same,"glucose concentration, t = 120",[2]; antibiotic 8 μg/mL,147
same,"glucose concentration, t = 180",[2]; antibiotic 8 μg/mL,51
